# Experimental data taken from ChEMBL document CHEMBL3436045 (Sci Rep, 2013).
# Biological target: T1, Voltage-gated L-type calcium channel (Homo sapiens, UniProt Q13936+Q13698+Q01668+O60840)
# Assay: Inhibition of Cav1.2 current measured using PatchXpress automatic path clamp system in CHO cells expressing Cav1.2, beta-2 and alpha-2/delta-1 subunits
# Assay type: functional, cell-based, Cricetulus griseus
# Design: ca sol conc 1.8 mM, temp Ambient
row,SMILES,IC50
1,CCCC(C)C1(CC)C(=O)NC(=O)NC1=O (stereo not given) [PENTOBARBITAL],299 µM

# Biological target: T1, Voltage-gated L-type calcium channel
# Assay: (§1) Inhibition of Cav1.2 current measured using QPatch automatic path clamp system in CHO cells expressing Cav1.2, beta-2 and alpha-2/delta-1 subunits
# Assay type: functional, cell-based, Cricetulus griseus
# Design: ca sol conc 1.8 mM, temp Ambient
row,SMILES,IC50
1,CCCCCCCN(CC)CCCC(O)c1ccc(NS(C)(=O)=O)cc1 (stereo not given) [IBUTILIDE],62.5 µM
2,Cc1cn([C@@H]2C[C@@H](O)[C@H](CO)O2)c(=O)[nH]c1=O [TELBIVUDINE],713.9 µM
3,N[C@@H](CC(=O)N1CCn2c(nnc2C(F)(F)F)C1)Cc1cc(F)c(F)cc1F [SITAGLIPTIN],147.1 µM
4,O=C1NC(=O)C(c2ccccc2)(c2ccccc2)N1 [PHENYTOIN],21.9 µM
5,COc1cc(N)c(Cl)cc1C(=O)NC1CCN(CCCOc2ccc(F)cc2)CC1OC (stereo not given) [CISAPRIDE],11.8 µM
6,Fc1ccc([C@@H]2CCNC[C@H]2COc2ccc3c(c2)OCO3)cc1 [PAROXETINE],3.9 µM
7,Cc1nc2n(c(=O)c1CCN1CCC(c3noc4cc(F)ccc34)CC1)CCCC2O (stereo not given) [PALIPERIDONE],193.9 µM
8,CC(C)N(CCC(C(N)=O)(c1ccccc1)c1ccccn1)C(C)C (stereo not given) [DISOPYRAMIDE],1036.7 µM
9,O=C(CCCN1CC=C(n2c(=O)[nH]c3ccccc32)CC1)c1ccc(F)cc1 [DROPERIDOL],7.6 µM
10,O=C1CCc2cc(OCCCCc3nnnn3C3CCCCC3)ccc2N1 [CILOSTAZOL],91.2 µM
11,CCN(CC)CCNC(=O)c1c(C)[nH]c(/C=C2\C(=O)Nc3ccc(F)cc32)c1C [SUNITINIB],33.4 µM
12,O=C1NCCN1CCN1CCC(c2cn(-c3ccc(F)cc3)c3ccc(Cl)cc23)CC1 [SERTINDOLE],6.3 µM
13,CC(=O)NC[C@H]1CN(c2ccc(N3CCOCC3)c(F)c2)C(=O)O1 [LINEZOLID],105.4 µM
14,C[C@@H]1CN(c2c(F)c(N)c3c(=O)c(C(=O)O)cn(C4CC4)c3c2F)C[C@H](C)N1 [SPARFLOXACIN],88.8 µM
15,CC(CC(c1ccccc1)c1ccccc1)NC(C)(C)C (stereo not given) [TERODILINE],4.8 µM
16,NC(=O)c1ncn([C@@H]2O[C@H](CO)[C@@H](O)[C@H]2O)n1 [RIBAVIRIN],622.5 µM
17,CCN1CCN(C(=O)N[C@@H](C(=O)N[C@@H]2C(=O)N3[C@@H]2SC(C)(C)[C@@H]3C(=O)O)c2ccccc2)C(=O)C1=O [PIPERACILLIN],1226 µM
18,CO/N=C(\C(=O)N[C@@H]1C(=O)N2C(C(=O)O)=C(CSc3nc(=O)c(O)nn3C)CS[C@H]12)c1csc(N)n1 [CEFTRIAXONE],153.8 µM

# Biological target: T1, Voltage-gated L-type calcium channel
# Assay: as §1
# Assay type: functional, cell-based, Cricetulus griseus
row,SMILES,IC50
1,C[C@@H](c1ncncc1F)[C@](O)(Cn1cncn1)c1ccc(F)cc1F [VORICONAZOLE],414.2 µM
